Experimental data taken from US8263579B2, “Anti-inflammatory compounds” (Piramal Healthcare Limited, priority 2011, dated 2012).

Legend:
[1] = system: TNF-α; assay: High throughput screening in LPS stimulated THP-1 cells, TNF-α release by ELISA; assay type: cell-based
Experimental: (§1) The assay was designed on the basis of the reference, The Journal of Immunology, 1993, 151 (10), 5631-5638, the disclosure of which is incorporated by reference for the teaching of the assay.
(§2) THP-1 (ATCC, USA) cells were cultured in RPMI 1640 (Roswell Park Memorial Institute) culture medium (Gibco BRL, Pasley, UK) containing 100 U/ml penicillin, […] streptomycin (100× solution, Sigma Chemical Co. St Louis, Mo., USA) and 10% fetal bovine serum (Gibco BRL, Pasley, UK). The cells were differentiated into macrophages with phorbol myristate acetate (Sigma, USA) in 96 well culture plates. Following cell plating, various concentrations of the compound of formula I or the compound of formula II or vehicle (0.5% DMSO) were added to each well and the plate was incubated for 30 min at 37° C. Finally, per well, 20 μL of LPS (10 μg/mL stock solution) (Escherchia coli 0127:B8, Sigma Chemical Co., St. Louis, Mo.) was added for a final concentration of 1 μg/mL. Plates were incubated at 37° C. for 24 hours in an atmosphere of 5% CO2. Supernatants were harvested, and assayed for TNF-α and IL-6 by ELISA as described by the manufacturer (BD Biosciences). Percent inhibition of cytokine release compared to the control was calculated. The 50% inhibitory concentration (IC50) values were calculated by a nonlinear regression method.
(§3) Dexamethasone was used as standard.

[2] = system: IL-6; assay: High throughput screening in LPS stimulated THP-1 cells, IL-6 release by ELISA; assay type: cell-based
Experimental: as §1, §2, §3

[3] = Homo sapiens, LPS (1 μg/mL) stimulated THP-1 cells differentiated with PMA, 24 hours, ELISA
[4] = preparative HPLC fractions tested by method of Example 7
[5] = Homo sapiens, at 1 μg/ml, LPS stimulated THP-1 cells

SMILES | IC50 [1, 3] [µg/mL] | TNF-α inhibition of HPLC fractions (qualitative) [1, 4] | IC50 [2, 3] [µg/mL] | IL-6 inhibition of HPLC fractions (qualitative) [2, 4] | inhibition at 1 µg/mL [1, 5] [%] | inhibition at 1 µg/mL [2, 5] [%]
CCCCCCCCCCCCO/N=N/OC [Compound of formula II] | 1.5 | exhibited IL-6 and TNF-α inhibition | 1.2 | exhibited IL-6 and TNF-α inhibition |  | 
C[C@@H]1C[C@H]2[C@@H]3CCC4=CC(=O)C=C[C@]4(C)[C@@]3(F)[C@@H](O)C[C@]2(C)[C@@]1(O)C(=O)CO [Dexamethasone, reference compound] |  |  |  |  | 73 | 84
